Data: patent publication US20260224582A1, “Heterobicyclic amides as inhibitors of CD38” (Cerevance, Inc., priority 2022, published 2026)

How the values were obtained:
Recombinant mouse CD38 = target: T1, Recombinant mouse CD38 (Mus musculus, UniProt P56528); assay: Mouse CD38 hydrolase assay (fluorescence-based, ε-NAD substrate); type: biochemical; conditions: recombinant mouse CD38 0.4 nM, 12 μM ε-NAD, 30 min preincubation at 25° C.
T1 sequence (P56528 1-304): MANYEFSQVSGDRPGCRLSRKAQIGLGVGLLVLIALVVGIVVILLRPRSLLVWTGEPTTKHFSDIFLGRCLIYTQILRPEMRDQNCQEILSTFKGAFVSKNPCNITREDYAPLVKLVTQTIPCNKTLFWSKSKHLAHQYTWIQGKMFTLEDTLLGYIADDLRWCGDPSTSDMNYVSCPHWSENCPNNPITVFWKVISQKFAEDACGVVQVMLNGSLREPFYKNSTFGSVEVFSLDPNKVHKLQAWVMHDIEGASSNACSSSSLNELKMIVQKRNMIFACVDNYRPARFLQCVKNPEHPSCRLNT
Method: The ability of test compounds to inhibit mouse CD38 hydrolase activity was measured in a fluorescence-based assay using non-physiological NAD^+ substrate analogue 1,N^6-etheno NAD^+ (&-NAD). Recombinant mouse CD38 (0.4 nM) was preincubated with test compounds in 384-well black microplates for 30 min at 25° C. in PBS (—Ca^2+/Mg^2+) containing 0.005% BSA (pH 7.4). CD38 hydrolase activity was initiated by addition of 12 μM ε-NAD, which yields the fluorescent product 1,N^6-etheno ADP-ribose. Formation of fluorescent product was followed using ClarioStar Plus (BMG) microplate reader by reading fluorescence (excitation λ=300 nm; emission λ=410 nm) at two time points, one immediately after substrate addition (t=0) and one at 6 min (t=6).
Data was analysed by subtracting the values detected at t=0 from t=6 to correct for variation in baseline fluorescence. Fluorescence values were converted to percent inhibition using the average of high signal (CD38 and ε-NAD) and low signal (CD38 and ε-NAD in the presence of a tool CD38 inhibitor) control wells. IC50 values were determined from a 10-point, halflog concentration response curve with a four-parameter logistic equation.

Recombinant human CD38 = target: T2, Recombinant human CD38 (Homo sapiens, UniProt P28907); assay: Human CD38 hydrolase assay (fluorescence-based, ε-NAD substrate); type: biochemical; conditions: recombinant human CD38 0.8 nM, 4 μM ε-NAD, 30 min preincubation at 25° C.
T2 sequence (P28907 1-300): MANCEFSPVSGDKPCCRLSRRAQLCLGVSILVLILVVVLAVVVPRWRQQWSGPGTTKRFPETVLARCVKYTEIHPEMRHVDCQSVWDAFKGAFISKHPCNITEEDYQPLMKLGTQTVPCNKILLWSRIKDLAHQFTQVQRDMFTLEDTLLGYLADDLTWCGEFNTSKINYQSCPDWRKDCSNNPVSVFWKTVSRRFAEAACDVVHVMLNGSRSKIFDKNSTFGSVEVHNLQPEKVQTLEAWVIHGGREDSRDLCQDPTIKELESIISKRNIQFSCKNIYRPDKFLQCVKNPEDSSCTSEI
Method: The ability of test compounds to inhibit human CD38 hydrolase activity was measured in a fluorescence-based assay using non-physiological NAD^+ substrate analogue 1,N^6-etheno NAD^+ (ε-NAD). Recombinant human CD38 (0.8 nM) was preincubated with test compounds in 384-well black microplates for 30 min at 25° C. in PBS (—Ca^2+/Mg^2+) containing 0.005% BSA (pH 7.4). CD38 hydrolase activity was initiated by addition of 4 μM ε-NAD, which yields the fluorescent product 1,N^6-etheno ADP-ribose. Formation of fluorescent product was followed using ClarioStar Plus (BMG) microplate reader by reading fluorescence (excitation λ=300 nm; emission λ=410 nm) at two time points, one immediately after substrate addition (t=0) and one at 10 min (t=10). Data was analysed by subtracting the values detected at t=0 from t=10 to correct for variation in baseline fluorescence. Fluorescence values were converted to percent inhibition using the average of high signal (CD38 and ε-NAD) and low signal (CD38 and ε-NAD in the presence of a tool CD38 inhibitor) control wells. IC50 values were determined from a 10-point, half log concentration response curve with a four-parameter logistic equation.

Row | IC50 (Recombinant mouse CD38) | IC50 (Recombinant human CD38) | Compound
1 | ≤ 0.04 µM | ≤ 0.04 µM | O=C(NC1CC2(CC(NCC(F)(F)F)C2)C1)c1nc(-n2ccnc2)nn2cccc12 (single isomer, unassigned) [Example 9, 2-(1H-imidazol-1-yl)-N-(6-((2,2,2-trifluoroethyl)amino)spiro[3.3]heptan-2-yl)pyrrolo[2,1-f][1,2,4]triazine-4-carboxamide]
2 | ≤ 0.04 µM | ≤ 0.1 µM | O=C(NC1CCOCC1)c1nc(-n2ccnc2)cc2nccn12 [Example 1, 7-(1H-imidazol-1-yl)-N-(tetrahydro-2H-pyran-4-yl) imidazo[1,2-c]pyrimidine-5-carboxamide]
3 | ≤ 0.04 µM | ≤ 0.04 µM | O=C(NC1CCOCC1)c1nc(-n2ccnc2)nc2ncccc12 [Example 3, 2-(1H-imidazol-1-yl)-N-(tetrahydro-2H-pyran-4-yl)pyrido[2,3-d]pyrimidine-4-carboxamide]
4 |  | ≤ 10 µM | O=C(N[C@H]1CC[C@H](NCC(F)(F)F)CC1)c1cc2cccnc2c(-n2ccnc2)n1 [Example 6, 8-(1H-imidazol-1-yl)-N-((1r,4r)-4-((2,2,2-trifluoroethyl)amino)cyclohexyl)-1,7-naphthyridine-6-carboxamide]
5 | ≤ 0.04 µM | ≤ 0.04 µM | O=C(NC1CCC2(CC1)CN(CC(F)(F)F)C2)c1nc(-n2ccnc2)nn2cccc12 [Example 8, 2-(1H-imidazol-1-yl)-N-(2-(2,2,2-trifluoroethyl)-2-azaspiro[3.5]nonan-7-yl)pyrrolo[2,1-f][1,2,4]triazine-4-carboxamide]
6 | ≤ 0.04 µM | ≤ 0.04 µM | O=C(N[C@H]1C[C@H](NCC(F)(F)F)C1)c1nc(-n2ccnc2)nn2cccc12 [Example 11, 2-(1H-imidazol-1-yl)-N-((1r,3r)-3-((2,2,2-trifluoroethyl)amino)cyclobutyl)pyrrolo[2,1-f][1,2,4]triazine-4-carboxamide]
7 | ≤ 0.04 µM | ≤ 0.04 µM | O=C(N[C@H]1CC[C@H](NCC(F)(F)F)CC1)c1cn2cccc2c(-n2ccnc2)n1 [Example 15, 1-(1H-imidazol-1-yl)-N-((1r,4r)-4-((2,2,2-trifluoroethyl)amino)cyclohexyl)pyrrolo[1,2-a]pyrazine-3-carboxamide]
8 | ≤ 0.04 µM | ≤ 1 µM | O=C(N[C@H]1CC[C@H](NCC(F)(F)F)CC1)c1nc(-n2ccnc2)c2cccn2n1 [Example 16, 4-(1H-imidazol-1-yl)-N-((1r,4r)-4-((2,2,2-trifluoroethyl)amino)cyclohexyl)pyrrolo[2,1-f][1,2,4]triazine-2-carboxamide]
9 | ≤ 0.04 µM | ≤ 0.04 µM | O=C(N[C@H]1CC[C@H](NCC(F)(F)F)CC1)c1nc(-c2cncn2CCO)nn2cccc12 [Example 18, 2-(1-(2-hydroxyethyl)-1H-imidazol-5-yl)-N-((1r,4r)-4-((2,2,2-trifluoroethyl)amino)cyclohexyl)pyrrolo[2,1-f][1,2,4]triazine-4-carboxamide]
10 | ≤ 0.04 µM | ≤ 1 µM | O=C(N[C@H]1CC[C@H](N2CC[C@@H](F)C2)CC1)c1cn2cccc2c(-n2ccnc2)n1 [Example 24, N-((1R,4r)-4-((R)-3-fluoropyrrolidin-1-yl)cyclohexyl)-1-(1H-imidazol-1-yl)pyrrolo[1,2-a]pyrazine-3-carboxamide]
11 | ≤ 0.04 µM | ≤ 0.1 µM | O=C(N[C@H]1CC[C@H](N2CC[C@@H](F)C2)CC1)c1cn2ncnc2c(-n2ccnc2)n1 [Example 26, N-((1R,4r)-4-((R)-3-fluoropyrrolidin-1-yl)cyclohexyl)-8-(1H-imidazol-1-yl)-[1,2,4]triazolo[1,5-a]pyrazine-6-carboxamide]
12 |  | ≤ 0.04 µM | O=C(N[C@H]1CC[C@H](N2CCCC2)CC1)c1nc(-n2ccnc2)nn2cccc12 [Example 43, 2-(1H-imidazol-1-yl)-N-((1r,4r)-4-(pyrrolidin-1-yl)cyclohexyl)pyrrolo[2,1-f][1,2,4]triazine-4-carboxamide]
13 |  | ≤ 1 µM | O=C(N[C@H]1CC[C@H](N2CCOCC2)CC1)c1cn2ncnc2c(-n2ccnc2)n1 [Example 49, 8-(1H-imidazol-1-yl)-N-((1r,4r)-4-morpholinocyclohexyl)-[1,2,4]triazolo[1,5-a]pyrazine-6-carboxamide]
14 |  | ≤ 1 µM | O=C(N[C@H]1CC[C@H](NCC(F)(F)F)CC1)c1cc2ncnn2c(-n2ccnc2)n1 [Example 60, 5-(1H-imidazol-1-yl)-N-((1r,4r)-4-((2,2,2-trifluoroethyl)amino)cyclohexyl)-[1,2,4]triazolo[1,5-c]pyrimidine-7-carboxamide]

Second part, the compound before the results:

Row | Compound | IC50 (Recombinant mouse CD38) | IC50 (Recombinant human CD38)
15 | O=C(NC1CC2(CC(NCC(F)(F)F)C2)C1)c1nc(-n2ccnc2)nn2cccc12 (single isomer, unassigned) [Example 10, 2-(1H-imidazol-1-yl)-N-(6-((2,2,2-trifluoroethyl)amino)spiro[3.3]heptan-2-yl)pyrrolo[2,1-f][1,2,4]triazine-4-carboxamide] | ≤ 0.04 µM | ≤ 0.04 µM
16 | O=C(N[C@H]1CC[C@H](NCC(F)(F)F)CC1)c1nc(-n2ccnc2)cc2nccn12 [Example 2, 7-(1H-imidazol-1-yl)-N-((1r,4r)-4-((2,2,2-trifluoroethyl)amino)cyclohexyl) imidazo[1,2-c]pyrimidine-5-carboxamide] | ≤ 0.04 µM | ≤ 0.04 µM
17 | O=C(N[C@H]1CC[C@H](NCC(F)(F)F)CC1)c1nc(-c2cncs2)cn2cccc12 [Example 5, 3-(thiazol-5-yl)-N-((1r,4r)-4-((2,2,2-trifluoroethyl)amino)cyclohexyl)pyrrolo[1,2-a]pyrazine-1-carboxamide] | ≤ 0.04 µM | ≤ 1 µM
18 | O=C(N[C@H]1CC[C@H](NCC(F)(F)F)CC1)c1cc2cccnc2c(-c2cncs2)n1 [Example 7, 8-(thiazol-5-yl)-N-((1r,4r)-4-((2,2,2-trifluoroethyl)amino)cyclohexyl)-1,7-naphthyridine-6-carboxamide] | ≤ 0.04 µM | ≤ 1 µM
19 | Cn1cncc1-c1nc(C(=O)N[C@H]2CC[C@H](NCC(F)(F)F)CC2)c2cccn2n1 [Example 17, 2-(1-methyl-1H-imidazol-5-yl)-N-((1r,4r)-4-((2,2,2-trifluoroethyl)amino)cyclohexyl)pyrrolo[2,1-f][1,2,4]triazine-4-carboxamide] | ≤ 0.04 µM | ≤ 0.04 µM
20 | O=C(N[C@H]1CC[C@H](N2CC[C@H](F)C2)CC1)c1cn2cccc2c(-n2ccnc2)n1 [Example 22, N-((1S,4r)-4-((S)-3-fluoropyrrolidin-1-yl)cyclohexyl)-1-(1H-imidazol-1-yl)pyrrolo[1,2-a]pyrazine-3-carboxamide] | ≤ 0.04 µM | ≤ 1 µM
21 | O=C(N[C@H]1CC[C@H](N2CC[C@H](O)C2)CC1)c1nc(-n2ccnc2)nn2cccc12 [Example 23, N-((1S,4r)-4-((S)-3-hydroxypyrrolidin-1-yl)cyclohexyl)-2-(1H-imidazol-1-yl)pyrrolo[2,1-f][1,2,4]triazine-4-carboxamide] | ≤ 0.04 µM | ≤ 0.04 µM
22 | O=C(N[C@H]1CC[C@H](N2CC[C@H](F)C2)CC1)c1cn2ncnc2c(-n2ccnc2)n1 [Example 25, N-((1S,4r)-4-((S)-3-fluoropyrrolidin-1-yl)cyclohexyl)-8-(1H-imidazol-1-yl)-[1,2,4]triazolo[1,5-a]pyrazine-6-carboxamide] | ≤ 0.04 µM | ≤ 1 µM
23 | O=C(N[C@H]1CC[C@H](N2CCC(F)(F)C2)CC1)c1cn2nccc2c(-n2ccnc2)n1 [Example 34, N-((1r,4r)-4-(3,3-difluoropyrrolidin-1-yl)cyclohexyl)-4-(1H-imidazol-1-yl)pyrazolo[1,5-a]pyrazine-6-carboxamide] |  | ≤ 1 µM
